Here are results for 25 compounds from US20090264289A1, “Use of Arylcarboxylic Acid Biphenylamides for Seed Treatment” (BASF SE, priority 2006, published 2009).

Holding throughout (format): in vivo
The subject of assay [1] is Puccinia recondita. Briefly: Activity against Puccinia recondita on wheat (solution pipetted to seedlings in vermiculite). To be noted: inoculated 7 days after treatment, 7 days incubation, control 80. The protocol: (§1) Activity Against Puccinia recondita on Wheat The active compounds were formulated as a stock solution in acetone at a concentration of 10 000 ppm. The stock solution was diluted with water to the stated active compound concentration. 1 ml of the respective solution was pipetted to wheat seedlings grown in vermiculite (10 to 12 seedlings per pot). 7 days after the treatment the wheat plants were inoculated with a spore suspension of Puccinia recondita. After 7 days of incubation, the extent of infection was determined visually in %. The concentration is given in g of active compound (g a.i.) per 100 kg of seeds.

The next assay deals with Erysiphe graminis. The assay is described as follows: Activity against Erysiphe graminis on wheat (solution pipetted to seedlings in vermiculite). As to conditions: inoculated 7 days after treatment, 7 days incubation, control 80. As to the method: as §1, with “Erysiphe graminis” for “Puccinia recondita”, “Erysiphe graminis.” for “Puccinia recondita.”
For a further assay, the system named is Septoria tritici. Briefly: Activity against Septoria tritici on wheat (seedlings treated, detached leaf portions on agar inoculated). To be noted: wheat seedlings in vermiculite, leaf portions on agar inoculated 7 days after treatment, 18° C., 18 days incubation, control 100. As to the method: Activity Against Septoria tritici on Wheat The active compound Ia.1 was formulated as a stock solution in acetone at a concentration of 10 000 ppm. The stock solution was diluted with water to the stated active compound concentration. 1 ml of the respective solution was pipetted to wheat seedlings grown in vermiculite (10 to 12 seedlings per pot). 7 days after the treatment leaf portions of 5 cm length were placed in petri dishes filled with aqueous agar. The leaf portions were then inoculated with a spore suspension of Septoria tritici. The closed Petri dishes were incubated in a climatized test cabinet at 18° C. and 12 h light exposure per day. After 18 days of incubation, the extent of infection was determined visually in %. The concentration is given in g of active compound (g a.i.) per 100 kg of seeds.

The subject of assay [2] is Puccinia recondita. Briefly: Activity against Puccinia recondita on wheat (seed treatment). As to conditions: 250 g a.i./100 kg seeds, inoculated 14 days after sowing, 7 days incubation, control 90. The protocol: Activity Against Puccinia recondita on Wheat (Seed Treatment) 24 mg of the active compounds listed in table 2 were in each case dissolved in 1 ml of acetone to give a stock solution. The stock solution was diluted with acetone to give the test solution. Aliquots of 4.8 g of wheat seeds were placed in glass vials, where they were treated in an air stream with 1 ml of the test solution containing the active compound. In each case, 10 grains were sown in pots of 8 cm diameter. Untreated grains served as control. […] After 7 days of incubation, the extent of infection was determined visually in %. The concentration is given in g of active compound (g a.i.) per 100 kg of seeds.

A further assay has as its system Phakopsora pachyrhizi. Briefly: Activity against Phakopsora pachyrhizi on soybean (solution pipetted to seedlings in vermiculite). To be noted: 250 g a.i./100 kg, inoculated 7 days after treatment, 14 days incubation, control 88. As to the method: Activity Against Phakopsora pachyrhizi on Soybean
The active compounds were formulated as a stock solution in dimethylsulfoxide at a concentration of 10 000 ppm. The stock solution was diluted with water to the stated active compound concentration. 1 ml of the respective solution was pipetted to soybean seedlings grown in vermiculite (1 seedling per pot). 7 days after the treatment the soybean plants were inoculated with a spore suspension of Phakopsora pachyrhizi. After 14 days of incubation, the extent of infection was determined visually in %. The concentration is given in g of active compound (g a.i.) per 100 kg of seeds.

On to `Cn1cc(C(=O)Nc2ccccc2-c2cc(Cl)cc(Cl)c2)c(C(F)F)n1` [Ia.43], for which the Infected leaf area in the assay on Puccinia recondita [1] (125 g a.i./100 kg) came to 0%; in the assay with Puccinia recondita [1] (250 g a.i./100 kg), 0%; with Erysiphe graminis (125 g a.i./100 kg), 2%; with Erysiphe graminis (250 g a.i./100 kg), 0%.

Turning to `Cn1cc(C(=O)Nc2ccccc2-c2ccc(F)c(Cl)c2)c(C(F)F)n1` [Ia.44], the Infected leaf area with Puccinia recondita [1] (125 g a.i./100 kg) and with Puccinia recondita [1] (250 g a.i./100 kg) was 0% each time.

Consider `Cn1cc(C(=O)Nc2ccccc2-c2ccc(F)c(F)c2)c(C(F)F)n1` [Ia.45], for which the Infected leaf area with Puccinia recondita [1] (125 g a.i./100 kg) and in the assay on Puccinia recondita [1] (250 g a.i./100 kg) was 0% each time.

`Cn1cc(C(=O)Nc2ccccc2-c2ccc(Cl)cc2F)c(C(F)(F)F)n1` [Ia.57]: the Infected leaf area in the assay on Puccinia recondita [1] (125 g a.i./100 kg) and with Puccinia recondita [1] (250 g a.i./100 kg) was 0% in each case.

`Cn1cc(C(=O)Nc2ccccc2-c2cccc(C(F)(F)F)c2)c(C(F)(F)F)n1` [Ia.64]: the Infected leaf area in the assay with Puccinia recondita [1] (125 g a.i./100 kg) and with Puccinia recondita [1] (250 g a.i./100 kg) was 0% in each case.

In the case of `Cc1cc(-c2ccccc2NC(=O)c2cn(C)nc2C(F)(F)F)c(F)cc1Cl` [Ia.84], the Infected leaf area with Septoria tritici (125 g a.i./100 kg) was 3%; in the assay with Septoria tritici (250 g a.i./100 kg), 3%; in the assay with Puccinia recondita [1] (125 g a.i./100 kg), 0%; with Puccinia recondita [1] (250 g a.i./100 kg), 0%; in the assay on Erysiphe graminis (125 g a.i./100 kg), 0%; with Erysiphe graminis (250 g a.i./100 kg), 0%.

As to `Cn1cc(C(=O)Nc2ccccc2-c2cc(F)c(F)c(F)c2)c(C(F)(F)F)n1` [Ia.85], the Infected leaf area in the assay on Septoria tritici (125 g a.i./100 kg), in the assay with Septoria tritici (250 g a.i./100 kg), in the assay on Puccinia recondita [1] (125 g a.i./100 kg), in the assay on Puccinia recondita [1] (250 g a.i./100 kg), in the assay on Erysiphe graminis (125 g a.i./100 kg) and in the assay with Erysiphe graminis (250 g a.i./100 kg) was 0% in each case. Moreover, the Infected leaf area in the assay with Puccinia recondita [2] came to 11%.

Take `Cn1cc(C(=O)Nc2ccc(F)cc2-c2ccc(Cl)c(Cl)c2)c(C(F)F)n1` [Ia.110]: the Infected leaf area with Phakopsora pachyrhizi came to 17%; with Septoria tritici (125 g a.i./100 kg) it was 3%; with Septoria tritici (250 g a.i./100 kg) it was 7%; in the assay with Erysiphe graminis (125 g a.i./100 kg) it was 0%; in the assay with Erysiphe graminis (250 g a.i./100 kg), 0%.

As to `Cn1cc(C(=O)Nc2ccccc2-c2ccc(SC(F)(F)F)cc2)c(C(F)(F)F)n1` [Ia.173], the Infected leaf area in the assay with Puccinia recondita [1] (125 g a.i./100 kg), in the assay on Puccinia recondita [1] (250 g a.i./100 kg), in the assay with Erysiphe graminis (125 g a.i./100 kg) and in the assay with Erysiphe graminis (250 g a.i./100 kg) was 0% in each case.

In the case of `Cn1cc(C(=O)Nc2ccccc2-c2cc(F)c(F)c(F)c2)c(C(F)Cl)n1` (stereo not shown) [Ia.211], the Infected leaf area in the assay on Phakopsora pachyrhizi turned out to be 3%; in the assay on Puccinia recondita [1] (125 g a.i./100 kg) it was 0%; with Puccinia recondita [1] (250 g a.i./100 kg), 0%; with Erysiphe graminis (125 g a.i./100 kg), 0%; in the assay with Erysiphe graminis (250 g a.i./100 kg) it was 0%.

Regarding `Cc1nn(C)c(Cl)c1C(=O)Nc1ccccc1-c1ccc(C(F)(F)F)cc1` [Ia.219], the Infected leaf area turned out to be 8% in the assay on Puccinia recondita [1] (125 g a.i./100 kg) and 6% in the assay with Puccinia recondita [1] (250 g a.i./100 kg).

Take `Cn1cc(C(=O)Nc2ccccc2-c2cccc(Cl)c2)c(CF)n1` [Ia.230]: the Infected leaf area in the assay on Puccinia recondita [1] (125 g a.i./100 kg) and with Puccinia recondita [1] (250 g a.i./100 kg) was 0% in each case.

With `Cn1cc(C(=O)Nc2ccccc2-c2cccc(Cl)c2)c(C(F)F)n1` [Ia.231], the Infected leaf area with Puccinia recondita [1] (125 g a.i./100 kg) and in the assay on Puccinia recondita [1] (250 g a.i./100 kg) was 0% in each case.

Take `Cn1cc(C(=O)Nc2ccccc2-c2ccccc2Cl)c(C(F)F)n1` [Ia.233]: the Infected leaf area in the assay with Septoria tritici (125 g a.i./100 kg) was 7%; with Septoria tritici (250 g a.i./100 kg) it was 0%; in the assay on Puccinia recondita [1] (125 g a.i./100 kg) it was 2%; in the assay on Puccinia recondita [1] (250 g a.i./100 kg), 0%.

`Cn1cc(C(=O)Nc2ccccc2-c2cc(F)cc(F)c2)c(C(F)F)n1` [Ia.244]: the Infected leaf area in the assay on Puccinia recondita [1] (125 g a.i./100 kg) and in the assay with Puccinia recondita [1] (250 g a.i./100 kg) was 0% throughout.

In the case of `Cn1cc(C(=O)Nc2ccccc2-c2cc(F)cc(F)c2)c(C(F)(F)F)n1` [Ia.245], the Infected leaf area in the assay on Phakopsora pachyrhizi, in the assay with Septoria tritici (125 g a.i./100 kg), in the assay with Septoria tritici (250 g a.i./100 kg), in the assay on Puccinia recondita [1] (125 g a.i./100 kg), with Puccinia recondita [1] (250 g a.i./100 kg) and with Erysiphe graminis (125 g a.i./100 kg) was 0% throughout. Further, the Infected leaf area in the assay on Erysiphe graminis (250 g a.i./100 kg) is on record as 0%; with Puccinia recondita [2], 19%.

As to `Cn1cc(C(=O)Nc2c(F)cccc2-c2ccc(F)c(Cl)c2)c(C(F)F)n1` [Ia.249], the Infected leaf area with Puccinia recondita [1] (125 g a.i./100 kg) and in the assay on Puccinia recondita [1] (250 g a.i./100 kg) was 0% each time.

`Cn1cc(C(=O)Nc2ccccc2-c2cc(F)cc(Cl)c2)c(C(F)F)n1` [Ia.250]: the Infected leaf area in the assay on Puccinia recondita [1] (125 g a.i./100 kg) and in the assay on Puccinia recondita [1] (250 g a.i./100 kg) was 0% throughout.

For the compound `Cn1cc(C(=O)Nc2ccccc2-c2cc(F)cc(Cl)c2)c(C(F)(F)F)n1` [Ia.251], the Infected leaf area in the assay on Puccinia recondita [1] (125 g a.i./100 kg) and in the assay with Puccinia recondita [1] (250 g a.i./100 kg) was 0% in each case.

For the compound `Cn1cc(C(=O)Nc2ccccc2-c2cc(Cl)ccc2Cl)c(C(F)(F)F)n1` [Ia.255], the Infected leaf area amounted to 3% in the assay on Septoria tritici (125 g a.i./100 kg); 3% in the assay with Septoria tritici (250 g a.i./100 kg); 0% with Puccinia recondita [1] (125 g a.i./100 kg); 0% with Puccinia recondita [1] (250 g a.i./100 kg); 0% in the assay with Erysiphe graminis (125 g a.i./100 kg); 0% in the assay on Erysiphe graminis (250 g a.i./100 kg). Also, the Infected leaf area with Puccinia recondita [2] is 38%.

Consider `Cn1cc(C(=O)Nc2ccccc2-c2ccc(SC(F)(F)F)cc2)c(C(F)F)n1` [Ia.313], for which the Infected leaf area in the assay on Septoria tritici (125 g a.i./100 kg), in the assay with Septoria tritici (250 g a.i./100 kg), in the assay with Puccinia recondita [1] (125 g a.i./100 kg), in the assay with Puccinia recondita [1] (250 g a.i./100 kg), in the assay on Erysiphe graminis (125 g a.i./100 kg) and with Erysiphe graminis (250 g a.i./100 kg) was 0% throughout.

`O=C(Nc1ccccc1-c1ccc(Cl)cc1)c1cccnc1Cl` [Id.1] displayed an Infected leaf area in the assay with Phakopsora pachyrhizi of 40%.

Regarding `O=C(Nc1ccccc1-c1ccc(OC(F)(F)F)cc1)c1cccnc1Cl` [Id.55], the Infected leaf area in the assay on Puccinia recondita [1] (125 g a.i./100 kg) and in the assay with Puccinia recondita [1] (250 g a.i./100 kg) was 0% each time.

Consider `O=C(Nc1ccccc1-c1ccc(OC(F)(F)C(F)F)cc1)c1cccnc1Cl` [Id.56], for which the Infected leaf area in the assay with Puccinia recondita [1] (125 g a.i./100 kg) and in the assay on Puccinia recondita [1] (250 g a.i./100 kg) was 0% each time.

Regarding `O=C(Nc1ccccc1-c1ccc(SC(F)(F)F)cc1)c1cccnc1Cl` [Id.58], the Infected leaf area with Puccinia recondita [1] (125 g a.i./100 kg) and with Puccinia recondita [1] (250 g a.i./100 kg) was 13% throughout.
